Results: PubChem BioAssay (NCI)
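Compound exposure: 48 hours, 5 concentrations, 96-well plates. GI50 marks 50% less growth. TGI denotes the concentration required for complete inhibition of growth.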

test system: UACC-257 melanoma; assay: NCI anticancer screen, dose series, 48 h

SMILES | GI50 [µM] | TGI [µM]
COc1ccc(Cn2c(N)c(S(=O)(=O)c3ccc(Cl)cc3)c3nc(C#N)c(C#N)nc32)cc1 | > 50 | > 50

test system: SR leukemia; assay: NCI anticancer screen, dose series, 48 h

SMILES | TGI [µM] | GI50 [µM]
Cn1cnnc1Sc1c([N+](=O)[O-])ncn1C | > 100 | –
C=CCC1(CN(C)C)CC/C(=C\c2ccc(Cl)cc2)C1=O (stereo not drawn) | 20.3 | –
Cc1ccc2c(C3C(C#N)=C(N)Oc4cc5ccccc5cc43)cc(=O)oc2c1 (stereo not drawn) | > 100 | 0.525
C[N+](C)(C)CC1CCC/C1=N\OC(=O)c1ccccc1 (stereo not drawn) | > 100 | –
CC(=O)N1CCC(=O)/C(=C/c2ccccc2)C1 | 72.5 | –
O=C(Nc1cc(C(F)(F)F)ccc1Cl)c1cccc(NC2=C(Cl)C(=O)N(Cc3ccccc3)C2=O)c1 | 3.16 | 1.26
C[Si](C)(C)/C(Br)=C\CCN1C(=O)CCC1=O | > 100 | –
Cc1ccc(S(=O)OCc2c(C)c(C)c(COS(=O)c3ccc(C)cc3)c(C)c2C)cc1 (stereo not drawn) | > 100 | –
COc1ccc2c(c1)c[n+](C)c1c3cc(OC)c(OC)cc3ccc21 | 13.2 | –
O=[P@@]1(c2ccccc2)O[C@H](COCc2ccccc2)[C@@H](OCc2ccccc2)[C@H](OCc2ccccc2)[C@H]1NCc1ccccc1 | 6.69 | 2.37
O=C1c2cc3c(cc2-c2c1c1cc(Cl)c(Cl)cc1c(=O)n2C[C@H](O)CO)OCO3 | 3.78 | < 0.01
CCN(CC)CCSc1c2ccccc2nc2c(OC)ccc(OC)c12 | 10.7 | –
C=COC(=O)N[C@H]1CCc2cc(OC)c(OC)c(OC)c2-c2ccc(SC)c(=O)cc21 | > 15.5 | –
CCOC(=O)C1SC(=Nc2ccccc2)N=C1C (stereo not drawn) | > 100 | –
O=C1CCC(=O)c2c1c(O)c1ccncc1c2O | 34.7 | –
CN(C)CCNC(=O)c1cccc2c(Nc3ccc(S(=O)(=O)N=C(N)N)cc3)c3ccccc3nc12 | > 100 | –
O=C(Nc1ccc(Cl)c(C(F)(F)F)c1)c1ccc(NC2=C(Cl)C(=O)N(Cc3ccccc3)C2=O)cc1 | 4.33 | 1.65
CC1(C)CC(=O)CC(=Nc2ccc([N+](=O)[O-])cc2)C1 | 88.5 | –
Oc1ccc2ccccc2c1N=Nc1ccc(Br)cc1 | > 100 | –
CC(C)=CCc1cc2c(cc1O)OC[C@H]1c3cc4c(cc3O[C@@H]21)OCO4 | > 100 | –
COc1ccc(Cn2c(N)c(S(=O)(=O)c3ccc(Cl)cc3)c3nc(C#N)c(C#N)nc32)cc1 | > 50 | 29.9

test system: NCI/ADR-RES ovarian; assay: NCI anticancer screen, dose series, 48 h

SMILES | GI50 [µM] | TGI [µM]
COc1ccc(-c2nsc3c2NC(=O)CC3c2cccc(OC)c2)cc1 (stereo not drawn) | 0.42 | 2.27
Cc1ccc2c(C3C(C#N)=C(N)Oc4cc5ccccc5cc43)cc(=O)oc2c1 (stereo not drawn) | 0.833 | > 100
COC(=O)c1cc2c(s1)-c1nccc3c1c(nc1ccccc13)C2=O | > 100 | > 100
CCCCCCCN=C(N)c1ccc(N2CCN(c3ccc(C(N)=NCCCCCCC)cc3)CC2)cc1 | 1.38 | > 57.7
COc1ccc2c(c1)c[n+](C)c1c3cc(OC)c(OC)cc3ccc21 | – | > 100
O=[P@@]1(c2ccccc2)O[C@H](COCc2ccccc2)[C@@H](OCc2ccccc2)[C@H](OCc2ccccc2)[C@H]1NCc1ccccc1 | 3.16 | > 100
C[C@H]1CN[C@@H]2[C@@H](C)[C@H]3[C@@H](C[C@H]4[C@@H]5CC[C@H]6C[C@@H](N)CC[C@]6(C)[C@H]5CC[C@]34C)O[C@@]2(O)C1 | – | 5.66
CSc1ccccc1C#C/C=C\C#Cc1ccccc1N | 4.05 | 16
O=C1c2cc3c(cc2-c2c1c1cc(Cl)c(Cl)cc1c(=O)n2C[C@H](O)CO)OCO3 | < 0.01 | 0.0184
COc1ccc(/C(=C\C=C(C#N)C#N)Sc2nc3ccccc3s2)cc1 | 3.69 | 12.6
CCc1c(Cl)c(C)cc(O)c1Cl | – | > 100
S=c1[nH]c2c(Cl)c(Cl)c(Cl)c(Cl)c2[nH]1 | – | 46.5
Cc1cc(N(CCCNc2ccnc3cc(Cl)ccc23)Cc2ccc3c(c2)OCO3)nc(N2CCOCC2)n1 | 0.692 | 23
COC(=O)c1ccc(-c2c(C#N)[n+](=O)c3cc(Cl)c(Cl)cc3n2[O-])cc1 | 23.2 | 75.6
